Data from patent publication US8299070B2, “Indole compounds and pharmaceutical use thereof” (Japan Tobacco Inc., priority 2009, dated 2012).

These molecules were tested against T1, hITK enzyme (FLAG-tagged full-length hITK) (Homo sapiens, UniProt Q08881) (assay: ITK inhibitory activity (HTRF kinase assay, biotinylated GST-SLP76 substrate)). Conditions: IC50 calculated from the 2 test compound concentrations sandwiching 50% ITK inhibitory rate.
T1 construct: strongly expressing FLAG-tagged full-length hITK in Sf9 cells; FLAG; made in house; host or cells: Sf9 insect cells (ITK); Escherichia coli (GST-SLP76 substrate)
T1 sequence (Q08881 1-620): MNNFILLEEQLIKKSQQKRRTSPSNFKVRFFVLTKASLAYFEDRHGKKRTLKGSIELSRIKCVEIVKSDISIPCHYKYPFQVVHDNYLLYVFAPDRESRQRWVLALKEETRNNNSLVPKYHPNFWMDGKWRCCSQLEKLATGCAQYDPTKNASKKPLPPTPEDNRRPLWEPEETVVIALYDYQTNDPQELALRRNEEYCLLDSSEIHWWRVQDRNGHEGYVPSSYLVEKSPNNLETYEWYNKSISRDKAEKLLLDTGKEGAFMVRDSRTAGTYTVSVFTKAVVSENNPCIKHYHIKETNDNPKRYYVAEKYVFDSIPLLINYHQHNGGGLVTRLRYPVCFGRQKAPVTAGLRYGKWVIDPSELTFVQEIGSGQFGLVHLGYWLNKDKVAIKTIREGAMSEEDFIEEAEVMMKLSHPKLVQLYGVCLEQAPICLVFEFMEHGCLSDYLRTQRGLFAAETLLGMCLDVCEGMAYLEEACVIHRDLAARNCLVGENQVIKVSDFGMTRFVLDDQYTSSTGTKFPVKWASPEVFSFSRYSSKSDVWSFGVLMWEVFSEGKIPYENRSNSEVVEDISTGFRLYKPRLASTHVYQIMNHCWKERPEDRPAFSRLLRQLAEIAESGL
Format: biochemical
Outline: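 Sf9-expressed hITK (50 ng/mL enzyme solution) reacted 10 min at RT in MOPS pH 7.0, 10 mmol/L MgCl2, 1 mmol/L DTT with E. coli SLP76 aa95–175 substrate; substrate solution held 100 µmol/L ATP (6 µmol/L for selected compounds). HTRF 665/620 ratio, blank-corrected; IC50 interpolated between two concentrations bracketing 50% inhibition.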
Molecule CN(C(=O)CN1CC(C)(C)CC1=O)c1ccc2cc(-c3n[nH]c4c3CCC(C)(C)C4)[nH]c2c1 [Example 163] has an IC50 of 1 nM. For CO[C@H](C)C(=O)N(C)c1ccc2cc(-c3n[nH]c4c3CCC(C)(C)C4)[nH]c2c1 [Example 168], the IC50 was 3 nM. Work on CN(C(=O)COC1CCCOC1)c1ccc2cc(-c3n[nH]c4c3CCC(C)(C)C4)[nH]c2c1 (centres unmarked) [Example 123] yielded an IC50 of 2 nM. CN(c1ccc2cc(-c3n[nH]c4c3CCC(C)(C)C4)[nH]c2c1)C(=O)[C@H]1CC[C@H](O)CC1 [Example 101] was tested, and the IC50 was 13 nM. With CN(C(=O)C1CCC(=O)N1)c1ccc2cc(-c3n[nH]c4c3CCC(C)(C)C4)[nH]c2c1 (centres unmarked) [Example 128] the IC50 was 2 nM. With C[C@@H](C(=O)N(CCO)c1ccc2cc(-c3n[nH]c4c3CCC(C)(C)C4)[nH]c2c1)N1CCOCC1 [Example 255] the IC50 was 3 nM. With CC1(C)CCc2c(-c3cc4ccc(C(=O)N5CCOCC5)cc4[nH]3)n[nH]c2C1 [Example 19] the IC50 was 23 nM. CC(N(C)C(=O)c1ccc2[nH]c(-c3n[nH]c4c3CCC(C)(C)C4)cc2c1)C(C)(C)C (centres unmarked) [Example 300] gave an IC50 of 221 nM. CO[C@H]1CCCN(C(C)C(=O)N(C)c2ccc3cc(-c4n[nH]c5c4CCC(C)(C)C5)[nH]c3c2)C1 (some centres unmarked) [Example 116] showed an IC50 of 9 nM. For CCN(CC)C(=O)c1ccc2[nH]c(-c3n[nH]c4c3CCC(C)(C)C4)cc2c1 [Example 330], the IC50 was 80 nM. C[C@@H]1COCC(=O)N1CC(=O)N(C)c1ccc2cc(-c3n[nH]c4c3CCC(C)(C)C4)[nH]c2c1 [Example 171] gave an IC50 of 1 nM. CN(C(=O)OCc1ccccc1)c1ccc2cc(-c3n[nH]c4c3CCC(C)(C)C4)[nH]c2c1 [Example 3, benzyl N-{2-(6,6-dimethyl-4,5,6,7-tetrahydro-1H-indazol-3-yl)-1H-indol-6-yl}-N-methylcarbamate] was tested, and the IC50 was 39 nM. For CCC(=O)N(C)c1ccc2cc(-c3n[nH]c4c3CC(O)CC4)[nH]c2c1 (centres unmarked) [Example 365], the IC50 was 45 nM. For COC(=O)N(C)CC(=O)N(C)c1ccc2cc(-c3n[nH]c4c3CCC(C)(C)C4)[nH]c2c1 [Example 198], the IC50 was 1 nM. For CC(=O)N1CCC(C(=O)N(C)c2ccc3cc(-c4n[nH]c5c4CCC(C)(C)C5)[nH]c3c2)CC1 [Example 64], the IC50 was 6 nM. Molecule COCCN(c1ccc2cc(-c3n[nH]c4c3CCC(C)(C)C4)[nH]c2c1)C(=O)[C@H]1CC[C@@H](OC)CC1 [Example 267] has an IC50 of 5 nM. With CC1(C)CCc2c(-c3cc4ccc(N(CCO)C(=O)C5CCCC5)cc4[nH]3)n[nH]c2C1 [Example 231] the IC50 was 2 nM. For CN(C(=O)[C@H](O)C1CCCCC1)c1ccc2cc(-c3n[nH]c4c3CCC(C)(C)C4)[nH]c2c1 [Example 77], the IC50 was 6 nM. COCCN(C(=O)CN1CC(C)(C)OCC1=O)c1ccc2cc(-c3n[nH]c4c3CCC(C)(C)C4)[nH]c2c1 [Example 278] showed an IC50 of 1 nM. CN(C(=O)CN1CCNC1=O)c1ccc2cc(-c3n[nH]c4c3CCC(C)(C)C4)[nH]c2c1 [Example 185] gave an IC50 of 2 nM. CN(C(=O)[C@H]1CCC(=O)N1C)c1ccc2cc(-c3n[nH]c4c3CCC(C)(C)C4)[nH]c2c1 [Example 150] showed an IC50 of 2 nM. In the case of CN(CC(=O)N(C)c1ccc2cc(-c3n[nH]c4c3CCC(C)(C)C4)[nH]c2c1)C(=O)OCc1ccccc1 [Example 178], the IC50 is reported as 4 nM. Work on C[C@H](C(=O)N(C)c1ccc2cc(-c3n[nH]c4c3CCC(C)(C)C4)[nH]c2c1)N1CCOCC1 [Example 135] yielded an IC50 of 6 nM. COc1nnc(NC(=O)c2ccc3[nH]c(-c4n[nH]c5c4CCC(C)(C)C5)cc3c2)s1 [Example 325] gave an IC50 of 246 nM. Work on CN(C(=O)OC1CCCCC1)c1ccc2cc(-c3n[nH]c4c3CCC(C)(C)C4)[nH]c2c1 [Example 102] yielded an IC50 of 117 nM. CN(C(=O)CN1CCC[C@H](O)C1)c1ccc2cc(-c3n[nH]c4c3CCC(C)(C)C4)[nH]c2c1 [Example 109] was tested, and the IC50 was 6 nM. In the case of CN(C(=O)COC1CCOC1)c1ccc2cc(-c3n[nH]c4c3CCC(C)(C)C4)[nH]c2c1 (centres unmarked) [Example 87], the IC50 is reported as under 3 nM. CC1(C)CCc2c(-c3cc4cc(C(=O)NCc5nnn[nH]5)ccc4[nH]3)n[nH]c2C1 [Example 317] was tested, and the IC50 was 21 nM. Work on COCC(=O)N(CCN(C)C)c1ccc2cc(-c3n[nH]c4c3CCC(C)(C)C4)[nH]c2c1 [Example 222] yielded an IC50 of under 3 nM. For CN(C(=O)C(O)C1CCOCC1)c1ccc2cc(-c3n[nH]c4c3CCC(C)(C)C4)[nH]c2c1 (centres unmarked) [Example 95], the IC50 was 3 nM. Molecule CCC(=O)N(C)c1ccc2cc(-c3n[nH]c4c3CC(OC(C)C)CC4)[nH]c2c1 (centres unmarked) [Example 371] has an IC50 of 112 nM. Work on CCC(=O)N(C)c1ccc2[nH]c(-c3n[nH]c4c3CCC(C)(C)C4)cc2c1 [Example 340] yielded an IC50 of 129 nM. CC1(C)CCc2c(-c3cc4cc(C(=O)N5CCCC(O)C5)ccc4[nH]3)n[nH]c2C1 (centres unmarked) [Example 301] gave an IC50 of 37 nM. In the case of CCC(=O)Nc1ccc2cc(-c3n[nH]c4c3CCC(C)(C)C4)[nH]c2c1 [Example 28], the IC50 is reported as 201 nM. CC1(C)CCc2c(-c3cc4ccc(N(CCO)C(=O)[C@H]5CC[C@@H](O)CC5)cc4[nH]3)n[nH]c2C1 [Example 248] gave an IC50 of 2 nM. CN(C(=O)c1cccc(C(F)(F)F)c1)c1ccc2cc(-c3n[nH]c4c3CCC(C)(C)C4)[nH]c2c1 [Example 31] showed an IC50 of 34 nM. Work on CN(C(=O)CN1CC(O)CC1=O)c1ccc2cc(-c3n[nH]c4c3CCC(C)(C)C4)[nH]c2c1 (centres unmarked) [Example 164] yielded an IC50 of 3 nM. In the case of CC1(C)CCc2c(-c3cc4ccc(N5CCCCC5=O)cc4[nH]3)n[nH]c2C1 [Example 211], the IC50 is reported as 33 nM. CCC(=O)N(C)c1ccc2cc(-c3n[nH]c4c3CC(OCc3ccccc3)C(C)(C)C4)[nH]c2c1 (centres unmarked) [Example 364] showed an IC50 of 45 nM. Work on COC1(C)CCN(c2ccc3cc(-c4n[nH]c5c4CCC(C)(C)C5)[nH]c3c2)C1=O (centres unmarked) [Example 243] yielded an IC50 of 24 nM. COCC(=O)N(C)c1ccc2cc(-c3n[nH]c4c3CCCC4)[nH]c2c1 [Example 352] was tested, and the IC50 was 37 nM. CN(C(=O)C(C)(C)O)c1ccc2cc(-c3n[nH]c4c3CCC(C)(C)C4)[nH]c2c1 [Example 37] showed an IC50 of 8 nM. Molecule CN(C(=O)c1ccc2cc(-c3n[nH]c4c3CCC(C)(C)C4)[nH]c2c1)c1ccccc1 [Example 10] has an IC50 of 45 nM. CCN(C(=O)CN1CCOC(C)C1=O)c1ccc2cc(-c3n[nH]c4c3CCC(C)(C)C4)[nH]c2c1 (centres unmarked) [Example 260] was tested, and the IC50 was under 1 nM. CCOCC(=O)N(C)c1ccc2cc(-c3n[nH]c4c3CCC(C)(C)C4)[nH]c2c1 [Example 44] showed an IC50 of under 3 nM. Molecule CCCOCCNC(=O)c1ccc2[nH]c(-c3n[nH]c4c3CCC(C)(C)C4)cc2c1 [Example 308] has an IC50 of 49 nM. With CC(C)C(=O)N(C)c1ccc2cc(-c3n[nH]c4c3CCC(C)(C)C4)[nH]c2c1 [Example 39] the IC50 was 4 nM. With CO[C@H]1CC[C@@H](C(=O)N(C)c2ccc3cc(-c4n[nH]c5c4CCC(C)(C)C5)[nH]c3c2)CC1 [Example 85] the IC50 was 4 nM. COCC(C(C)C)N(C)C(=O)c1ccc2cc(-c3n[nH]c4c3CCC(C)(C)C4)[nH]c2c1 (centres unmarked) [Example 26] was tested, and the IC50 was 85 nM. In the case of CCC(=O)N(CCOC)c1ccc2cc(-c3n[nH]c4c3CCC(C)(C)C4)[nH]c2c1 [Example 212], the IC50 is reported as 5 nM. In the case of CN(C(=O)CN1CC[C@@H](O)CC1=O)c1ccc2cc(-c3n[nH]c4c3CCC(C)(C)C4)[nH]c2c1 [Example 170], the IC50 is reported as under 1 nM. Molecule CCN(C(=O)CN1CCOCC1=O)c1ccc2cc(-c3n[nH]c4c3CCC(C)(C)C4)[nH]c2c1 [Example 288] has an IC50 of 1 nM. Work on CN(C(=O)[C@@H]1CCCO1)c1ccc2cc(-c3n[nH]c4c3CCC(C)(C)C4)[nH]c2c1 [Example 139] yielded an IC50 of 2 nM.
